# Data reported in patent publication US20230365526A1, “PYRIDAZINE DERIVATIVES FOR MODULATING NUCLEIC ACID SPLICING” (REMIX THERAPEUTICS INC., priority 2020, published 2023).
# Read-outs that look alike come from different tables or passages of the source.
# Key:
# Assay type in all cases: cell-based
# HTT mRNA = assay: RT-qPCR splicing assay monitoring HTT canonical (CJ) and alternative (AJ) junction mRNA in A673 or K562 cells; details: 24 hours compound treatment, top dose 10 uM
# Method: (§1) Compounds described herein were used to modulate RNA transcript abundance in cells. The expression of a target mRNA was measured by detecting the formation of an exon-exon junction in the canonical transcript (CJ). A compound mediated exon-inclusion event was detected by observing an increase in formation of a new junction with an alternative exon (AJ). Real-time qPCR assays were used to detect these splicing switches and interrogate the potency of various compounds towards different target genes. A high-throughput real time quantitative PCR (RT-qPCR) assay was developed to measure these two isoforms of the mRNA (CJ and AJ) for an exemplary gene, HTT, together with a control housekeeping gene, GAPDH or GUSB or PPIA, used for normalization. Briefly, the A673 or K562 cell line was treated with various compounds described herein (e.g., compounds of Formula (I)). After treatment, the levels of the HTT mRNA targets were determined from each sample of cell lysate by cDNA synthesis followed by qPCR.
# • Cells-to-CT 1-step kit: ThermoFisher A25602, Cells-to-CT lysis reagent: ThermoFisher 4391851C, TaqMan™ Fast Virus 1-Step Master Mix: ThermoFisher 4444436 • GAPDH: VIC-PL, ThermoFisher 4326317E (Assay: Hs99999905_m1)—used for K562/suspension cell lines • GUSB: VIC-PL, ThermoFisher 4326320E (Assay: Hs99999908_m1)—used for K562/suspension cell lines • PPIA: VIC-PL, ThermoFisher 4326316E (Assay: Hs99999904_m1)—used for A673/adherent cell lines
# (§2) The A673 cell line was cultured in DMEM with 10% FBS. Cells were diluted with full growth media and plated in a 96-well plate (15,000 cells in 100 ul media per well). The plate was incubated at 37° C. with 5% CO2 for 24 hours to allow cells to adhere. An 11-point 3-fold serial dilution of the compounds was made in DMSO then diluted in media in an intermediate plate. Compounds were transferred from the intermediate plate to the cell plate with the top dose at a final concentration of 10 uM in the well. Final DMSO concentration was kept at or below 0.25%. The cell plate was returned to the incubator at 37° C. with 5% CO2 for an additional 24 hours.
# (§3) The K562 cell line was cultured in IMDM with 10% FBS. For K562, cells were diluted with full growth media and plated in either a 96-well plate (50,000 cells in 50 uL media per well) or a 384-well plate (8,000-40,000 cells in 45 uL media per well). An 11-point 3-fold serial dilution of the compounds were made in DMSO then diluted in media in an intermediate plate. Compound was transferred from the intermediate plate to the cell plate with the top dose at a final concentration of 10 uM in the well. Final DMSO concentration was kept at or below 0.25%. Final volume was 100 uL for 96-well plate and 50 uL for 384-well plate. The cell plate was then placed in an incubator at 37° C. with 5% CO2 for 24 hours.
# (§4) The cells were then gently washed with 50 uL-100 uL cold PBS before proceeding to addition of lysis buffer. 30 uL-50 uL of room temperature lysis buffer with DNAse I (and optionally RNAsin) was added to each well. Cells were shaken/mixed thoroughly at room temperature for 5-10 minutes for lysis to take place and then 3 uL-5 uL of room temperature stop solution was added and wells were shaken/mixed again. After 2-5 minutes, the cell lysate plate was transferred to ice for RT-qPCR reaction setup. The lysates could also be frozen at −80° C. for later use.
# In some cases, a direct lysis buffer was used. An appropriate volume of 3×lysis buffer (10 mM Tris, 150 mM NaCl, 1.5%-2.5% Igepal and 0.1-1 U/uL RNAsin, pH 7.4) was directly added to either K562 or A673 cells in media and mixed by pipetting 3 times. The plates were then incubated at room temperature with shaking/rocking for 20-50 minutes to allow for lysis to take place. After this time, the cell lysate plate was transferred to ice to set up for the RT-qPCR reactions. The lysates could also be frozen at −80° C. for later use. […]
# HTT = assay: Gene panel canonical junction RT-qPCR assay: HTT; details: read-out: HTT (IC50, decrease in CJ mRNA levels)
# Method: as §1, §2, §3, §4
# (§5) In some cases, a direct lysis buffer was used. An appropriate volume of 3×lysis buffer (10 mM Tris, 150 mM NaCl, 1.5%-2.5% Igepal and 0.1-1 U/uL RNAsin, pH 7.4) was directly added to either K562 or A673 cells in media and mixed by pipetting 3 times. The plates were then incubated at room temperature with shaking/rocking for 20-50 minutes to allow for lysis to take place. After this time, the cell lysate plate was transferred to ice to set up for the RT-qPCR reactions. The lysates could also be frozen at −80° C. for later use.
# (§6) To set up 10 uL RT-qPCR reactions, cell lysates were transferred to 384-well qPCR plates containing the master mix according to the table below. The plates were sealed, gently vortexed, and spun down before the run. The volumes were adjusted accordingly in some instances where the reaction was carried in 20 uL. The table below summarizes the components of the RT-qPCR reactions:
# (§7) The RT-qPCR reaction was performed using a QuantStudio (ThermoFisher) under the following fast cycling conditions. […]
# SMN2 = assay: Gene panel canonical junction RT-qPCR assay: SMN2; details: read-out: SMN2 (IC50, decrease in CJ mRNA levels)
# Method: as §1, §2, §3, §4, §5, §6, §7
# Target C = assay: Gene panel canonical junction RT-qPCR assay: Target C; details: read-out: Target C (IC50, decrease in CJ mRNA levels)
# Method: as §1, §2, §3, §4, §5, §6, §7
# [1] = decrease in CJ mRNA, read-out: HTT CJ AC50
# [2] = increase in AJ mRNA, read-out: HTT AJ AC50
Structure (SMILES),AC50 (HTT mRNA; [1]) [µM],AC50 (HTT mRNA; [2]) [µM],IC50 (HTT) [µM],IC50 (SMN2) [µM],IC50 (Target C) [µM]
"CN(c1ccc(-c2ccc(-n3cccn3)c(=O)[nH]2)nn1)[C@@H]1C[C@H]2CC[C@@H](C1)N2 [Compound 130, 6-[6-[(1R,3S,5S)-8-azabicyclo[3.2.1]octan-3-yl(methyl)amino]pyridazin-3-yl]-3-(pyrazol-1-yl)-1H-pyridin-2-one]",0.1 to 1,1 to 10,0.1 to 1,1 to 10,< 0.1
"COc1nc(-c2ccc(N(C)[C@@H]3C[C@H]4CC[C@@H](C3)N4)nn2)ccc1-c1cn[nH]c1 [Compound 133, (1R,3S,5S)—N-[6-[6-methoxy-5-(1H-pyrazol-4-yl)pyridin-2-yl]pyridazin-3-yl]-N-methyl-8-azabicyclo[3.2.1]octan-3-amine]",< 0.1,0.1 to 1,< 0.1,< 0.1,< 0.1
"COc1nc(-c2ccc(N(C)[C@@H]3C[C@H]4CC[C@@H](C3)N4)nn2)ccc1-n1cccn1 [Compound 134, (1R,3S,5S)—N-[6-[6-methoxy-5-(pyrazol-1-yl)pyridin-2-yl]pyridazin-3-yl]-N-methyl-8-azabicyclo[3.2.1]octan-3-amine]",0.1 to 1,0.1 to 1,0.1 to 1,0.1 to 1,> 10
"COc1nc(-c2ccc(N(C)[C@@H]3CCN[C@H](C)C3)nn2)ccc1-c1cn[nH]c1 [Compound 136, 6-[6-methoxy-5-(1H-pyrazol-4-yl)pyridin-2-yl]-N-methyl-N-[(2R,4R)-2-methylpiperidin-4-yl]pyridazin-3-amine]",1 to 10,1 to 10,1 to 10,0.1 to 1,
Cc1nc(-c2ccc(N(C)[C@@H]3C[C@H]4CC[C@@H](C3)N4)nn2)ccc1-c1cn[nH]c1 [Compound 171],1 to 10,1 to 10,1 to 10,0.1 to 1,1 to 10
COc1nc(-c2ccc(N(C)[C@@H]3C[C@H]4CC[C@@H](C3)N4)nn2)ncc1-c1cn[nH]c1 [Compound 207],1 to 10,1 to 10,1 to 10,1 to 10,1 to 10
COc1cc(-c2ccc(N(C)[C@@H]3C[C@H]4CC[C@@H](C3)N4)nn2)ccc1-c1cn[nH]c1 [Compound 208],0.1 to 1,0.1 to 1,0.1 to 1,< 0.1,0.1 to 1
CN(c1ccc(-c2ccc(-c3cn[nH]c3)cn2)nn1)[C@@H]1C[C@H]2CC[C@@H](C1)N2 [Compound 217],0.1 to 1,0.1 to 1,0.1 to 1,> 10,1 to 10
"COc1nc(-c2ccc(N(C)C3C[C@H]4CC[C@@H](C3)N4)nn2)ccc1-c1cnn(C)n1 (stereo partly drawn) [Compound 269, N-{6-[6-methoxy-5-(2-methyl-1,2,3-triazol-4-yl)pyridin-2-yl]pyridazin-3-yl}-N-methyl-8-azabicyclo[3.2.1]octan-3-amine]",0.1 to 1,0.1 to 1,< 0.1,,0.1 to 1
"COc1nc(-c2ccc(NC3CCNCC3)nn2)ccc1-c1cnn(C)n1 [Compound 270, 6-[6-methoxy-5-(2-methyl-1,2,3-triazol-4-yl)pyridin-2-yl]-N-(piperidin-4-yl)pyridazin-3-amine]",> 10,1 to 10,1 to 10,,1 to 10
"COc1nc(-c2ccc(OC3CC(C)(C)NC(C)(C)C3)nn2)ccc1-n1cccn1 [Compound 271, bis(3-[6-methoxy-5-(pyrazol-1-yl)pyridin-2-yl]-6-[(2,2,6,6-tetramethylpiperidin-4-yl)oxy]pyridazine)]",1 to 10,1 to 10,1 to 10,,1 to 10
"COc1nc(-c2ccc(N(C)C3CC(C)(C)NC(C)(C)C3)nn2)ccc1-n1cccn1 [Compound 272, 6-[6-methoxy-5-(pyrazol-1-yl)pyridin-2-yl]-N-methyl-N-(2,2,6,6-tetramethylpiperidin-4-yl) pyridazin-3-amine]",0.1 to 1,0.1 to 1,1 to 10,,1 to 10
"CC(C)Oc1nc(-c2ccc(N(C)[C@@H]3C[C@H]4CC[C@@H](C3)N4)nn2)ccc1-c1cn[nH]c1 [Compound 284, (1R,3R,5S)—N-{6-[6-isopropoxy-5-(1H-pyrazol-4-yl)pyridin-2-yl]pyridazin-3-yl}-N-methyl-8-azabicyclo[3.2.1]octan-3-amine]",< 0.1,1 to 10,< 0.1,,0.1 to 1
"CN(c1ccc(-c2ccc(-c3cn[nH]c3)c(OC3CC3)n2)nn1)[C@@H]1C[C@H]2CC[C@@H](C1)N2 [Compound 286, (1R,3R,5S)—N-{6-[6-cyclopropoxy-5-(1H-pyrazol-4-yl)pyridin-2-yl]pyridazin-3-yl}-N-methyl-8-azabicyclo[3.2.1]octan-3-amine]",< 0.1,< 0.1,< 0.1,,< 0.1
"COc1nc(-c2ccc(N(C)[C@@H]3C[C@H]4CC[C@@H](C3)N4)nn2)ccc1-c1cnn(C)c1 [Compound 287, (1R,3s,5S)-N-(6-(6-methoxy-5-(1-methyl-1H-pyrazol-4-yl)pyridin-2-yl)pyridazin-3-yl)-N-methyl-8-azabicyclo [3.2.1] octan-3-amine]",< 0.1,0.1 to 1,< 0.1,,< 0.1
"COc1nc(-c2ccc(NC3CCNCC3)nn2)ccc1-n1cccn1 [Compound 288, 6-[6-methoxy-5-(pyrazol-1-yl)pyridin-2-yl]-N-(piperidin-4-yl) pyridazin-3-amine]",> 10,> 10,> 10,,> 10
"COc1nc(-c2ccc(O[C@@H]3C[C@H]4CC[C@@H](C3)N4)nn2)ccc1-c1cn(C)nn1 [Compound 290, 3-({6-[6-methoxy-5-(1-methyl-1,2,3-triazol-4-yl)pyridin-2-yl]pyridazin-3-yl}oxy)-8-azabicyclo[3.2.1]octane]",0.1 to 1,> 10,0.1 to 1,,1 to 10
